# Test results reported in US20070049564A1 (Wyeth, priority 2005, published 2007).
# Like-named read-outs stand apart in the source and are kept apart here.
# Key:
# Assay in all cases: MIC, broth microdilution
# [1] = tested on: E. coli GC 2235; settings: Escherichia coli
# [2] = tested on: E. coli GC 2233; settings: Escherichia coli
# [3] = tested on: E. coli GC 2234; settings: Escherichia coli
# [4] = tested on: E. coli GC 2270; settings: Escherichia coli
# Method: (§1) Antimicrobial susceptibility testing. The in vitro activities of the antibiotics are determined by the broth microdilution method as recommended by the National Committee for Clinical Laboratory Standards (NCCLS) (1). Mueller-Hinton II broth (MHBII)(BBL Cockeysville, Md.) is the medium employed in the testing procedures. Microtiter plates containing serial dilutions of each antimicrobial agent are inoculated with each organism to yield the appropriate density (10^5 CFU/ml) in a 100 μl final volume. The plates are incubated for 18-22 hours at 35° C. in ambient air.
# (§2) Representative compounds were first incubated in mouse serum for an hour prior to the in vitro testing against a panel of selected gram-positive and gram-negative bacteria strains. All compounds were also pre-incubated in water for an hour prior to testing as control. Representative compounds of Formula I were incubated in human serum prior to MIC determination.
# [5] = tested on: E. coli GC 2271; settings: Escherichia coli
# [6] = tested on: E. coli GC 4559; settings: Escherichia coli
# [7] = tested on: E. coli GC 4560; settings: Escherichia coli
# Method: as §1, §2
# [8] = tested on: E. coli GC 6465; settings: Escherichia coli
# [9] = tested on: E. coli GC 3226; settings: Escherichia coli
# [10] = tested on: E. coli GC 2203; settings: Escherichia coli
# [11] = tested on: E. coli GC 1073; settings: Escherichia coli
# [12] = tested on: S. typhimurium GC 2172; settings: Salmonella enterica, TYPHIMURIUM
# [13] = tested on: S. aureus GC 6466; settings: Staphylococcus aureus
# [14] = tested on: S. aureus GC 6467; settings: Staphylococcus aureus
# [15] = tested on: S. aureus GC 1079; settings: Staphylococcus aureus
# [16] = tested on: S. aureus GC 6335; settings: Staphylococcus aureus
# [17] = tested on: S. aureus GC 6469; settings: Staphylococcus aureus
# [18] = tested on: E. faecium GC 4556; settings: Enterococcus faecium
# [19] = tested on: S. pyogenes GC 4563; settings: Streptococcus pyogenes
# [20] = tested on: S. agalactiae GC 4564; settings: Streptococcus agalactiae
smiles,measurement,setting,value
"CC(C)COC(=O)N(CC(=O)Nc1cc(N(C)C)c2c(c1O)C(=O)C1=C(O)[C@]3(O)C(=O)C(C(N)=O)=C(O)[C@@H](N(C)C)[C@@H]3C[C@@H]1C2)C(C)(C)C [Example 59, isobutyl 2-{[(5aR,6aS,7S,10aS)-9-(aminocarbonyl)-4,7-bis(dimethylamino)-1,8,10a,11-tetrahydroxy-10,12-dioxo-5,5a,6,6a,7,10,10a,12-octahydrotetracen-2-yl]amino}-2-oxoethyl(tert-butyl)carbamate]",MIC,"[1]; GC2235, read-out: MINIMAL INHIBITORY CONCENTRATION MIC, Human Serum",> 64 µg/mL
same,MIC,"[1]; GC2235, read-out: MINIMAL INHIBITORY CONCENTRATION MIC, Mouse Serum",> 64 µg/mL
same,MIC,"[1]; GC2235, read-out: MINIMAL INHIBITORY CONCENTRATION MIC, Water",> 64 µg/mL
same,MIC,"[2]; GC2233, read-out: MINIMAL INHIBITORY CONCENTRATION MIC, Human Serum",> 64 µg/mL
same,MIC,"[2]; GC2233, read-out: MINIMAL INHIBITORY CONCENTRATION MIC, Mouse Serum",> 64 µg/mL
same,MIC,"[2]; GC2233, read-out: MINIMAL INHIBITORY CONCENTRATION MIC, Water",> 64 µg/mL
same,MIC,"[3]; GC2234, read-out: MINIMAL INHIBITORY CONCENTRATION MIC, Human Serum",> 64 µg/mL
same,MIC,"[3]; GC2234, read-out: MINIMAL INHIBITORY CONCENTRATION MIC, Mouse Serum",> 64 µg/mL
same,MIC,"[3]; GC2234, read-out: MINIMAL INHIBITORY CONCENTRATION MIC, Water",> 64 µg/mL
same,MIC,"[4]; GC2270, read-out: MINIMAL INHIBITORY CONCENTRATION MIC, Human Serum",> 64 µg/mL
same,MIC,"[4]; GC2270, read-out: MINIMAL INHIBITORY CONCENTRATION MIC, Mouse Serum",> 64 µg/mL
same,MIC,"[4]; GC2270, read-out: MINIMAL INHIBITORY CONCENTRATION MIC, Water",> 64 µg/mL
same,MIC,"[5]; GC2271, read-out: MINIMAL INHIBITORY CONCENTRATION MIC, Human Serum",> 64 µg/mL
same,MIC,"[5]; GC2271, read-out: MINIMAL INHIBITORY CONCENTRATION MIC, Mouse Serum",> 64 µg/mL
same,MIC,"[5]; GC2271, read-out: MINIMAL INHIBITORY CONCENTRATION MIC, Water",> 64 µg/mL
same,MIC,"[6]; GC4559, read-out: MINIMAL INHIBITORY CONCENTRATION MIC, Human Serum",> 64 µg/mL
same,MIC,"[6]; GC4559, read-out: MINIMAL INHIBITORY CONCENTRATION MIC, Mouse Serum",64 µg/mL
same,MIC,"[6]; GC4559, read-out: MINIMAL INHIBITORY CONCENTRATION MIC, Water",> 64 µg/mL
same,MIC,"[7]; GC4560, read-out: MINIMAL INHIBITORY CONCENTRATION MIC, Human Serum",4 µg/mL
same,MIC,"[7]; GC4560, read-out: MINIMAL INHIBITORY CONCENTRATION MIC, Mouse Serum",4 µg/mL
same,MIC,"[7]; GC4560, read-out: MINIMAL INHIBITORY CONCENTRATION MIC, Water",4 µg/mL
same,MIC,"[8]; GC6465, read-out: MINIMAL INHIBITORY CONCENTRATION MIC, Human Serum",> 64 µg/mL
same,MIC,"[8]; GC6465, read-out: MINIMAL INHIBITORY CONCENTRATION MIC, Mouse Serum",32 µg/mL
same,MIC,"[8]; GC6465, read-out: MINIMAL INHIBITORY CONCENTRATION MIC, Water",> 64 µg/mL
same,MIC,"[9]; GC3226, read-out: MINIMAL INHIBITORY CONCENTRATION MIC, Human Serum",> 64 µg/mL
same,MIC,"[9]; GC3226, read-out: MINIMAL INHIBITORY CONCENTRATION MIC, Mouse Serum",> 64 µg/mL
same,MIC,"[9]; GC3226, read-out: MINIMAL INHIBITORY CONCENTRATION MIC, Water",> 64 µg/mL
same,MIC,"[10]; GC2203, read-out: MINIMAL INHIBITORY CONCENTRATION MIC, Human Serum",> 64 µg/mL
same,MIC,"[10]; GC2203, read-out: MINIMAL INHIBITORY CONCENTRATION MIC, Mouse Serum",> 64 µg/mL
same,MIC,"[10]; GC2203, read-out: MINIMAL INHIBITORY CONCENTRATION MIC, Water",> 64 µg/mL
same,MIC,"[11]; GC1073, read-out: MINIMAL INHIBITORY CONCENTRATION MIC, Human Serum",> 64 µg/mL
same,MIC,"[11]; GC1073, read-out: MINIMAL INHIBITORY CONCENTRATION MIC, Mouse Serum",> 64 µg/mL
same,MIC,"[11]; GC1073, read-out: MINIMAL INHIBITORY CONCENTRATION MIC, Water",> 64 µg/mL
same,MIC,"[12]; read-out: MINIMAL INHIBITORY CONCENTRATION MIC, Human Serum",> 64 µg/mL
same,MIC,"[12]; read-out: MINIMAL INHIBITORY CONCENTRATION MIC, Mouse Serum",> 64 µg/mL
same,MIC,"[12]; read-out: MINIMAL INHIBITORY CONCENTRATION MIC, Water",> 64 µg/mL
same,MIC,"[13]; GC6466, read-out: MINIMAL INHIBITORY CONCENTRATION MIC, Human Serum",4 µg/mL
same,MIC,"[13]; GC6466, read-out: MINIMAL INHIBITORY CONCENTRATION MIC, Mouse Serum",4 µg/mL
same,MIC,"[13]; GC6466, read-out: MINIMAL INHIBITORY CONCENTRATION MIC, Water",8 µg/mL
same,MIC,"[14]; GC6467, read-out: MINIMAL INHIBITORY CONCENTRATION MIC, Human Serum",4 µg/mL
same,MIC,"[14]; GC6467, read-out: MINIMAL INHIBITORY CONCENTRATION MIC, Mouse Serum",4 µg/mL
same,MIC,"[14]; GC6467, read-out: MINIMAL INHIBITORY CONCENTRATION MIC, Water",4 µg/mL
same,MIC,"[15]; GC1079, read-out: MINIMAL INHIBITORY CONCENTRATION MIC, Human Serum",2 µg/mL
same,MIC,"[15]; GC1079, read-out: MINIMAL INHIBITORY CONCENTRATION MIC, Mouse Serum",4 µg/mL
same,MIC,"[15]; GC1079, read-out: MINIMAL INHIBITORY CONCENTRATION MIC, Water",8 µg/mL
same,MIC,"[16]; GC6335, read-out: MINIMAL INHIBITORY CONCENTRATION MIC, Human Serum",4 µg/mL
same,MIC,"[16]; GC6335, read-out: MINIMAL INHIBITORY CONCENTRATION MIC, Mouse Serum",4 µg/mL
same,MIC,"[16]; GC6335, read-out: MINIMAL INHIBITORY CONCENTRATION MIC, Water",4 µg/mL
same,MIC,"[17]; GC6469, read-out: MINIMAL INHIBITORY CONCENTRATION MIC, Human Serum",4 µg/mL
same,MIC,"[17]; GC6469, read-out: MINIMAL INHIBITORY CONCENTRATION MIC, Mouse Serum",4 µg/mL
same,MIC,"[17]; GC6469, read-out: MINIMAL INHIBITORY CONCENTRATION MIC, Water",4 µg/mL
same,MIC,"[18]; GC4556, read-out: MINIMAL INHIBITORY CONCENTRATION MIC, Human Serum",4 µg/mL
same,MIC,"[18]; GC4556, read-out: MINIMAL INHIBITORY CONCENTRATION MIC, Mouse Serum",4 µg/mL
same,MIC,"[18]; GC4556, read-out: MINIMAL INHIBITORY CONCENTRATION MIC, Water",4 µg/mL
same,MIC,"[19]; GC4563, read-out: MINIMAL INHIBITORY CONCENTRATION MIC, Human Serum",4 µg/mL
same,MIC,"[19]; GC4563, read-out: MINIMAL INHIBITORY CONCENTRATION MIC, Mouse Serum",4 µg/mL
same,MIC,"[19]; GC4563, read-out: MINIMAL INHIBITORY CONCENTRATION MIC, Water",4 µg/mL
same,MIC,"[20]; GC4564, read-out: MINIMAL INHIBITORY CONCENTRATION MIC, Human Serum",8 µg/mL
same,MIC,"[20]; GC4564, read-out: MINIMAL INHIBITORY CONCENTRATION MIC, Mouse Serum",8 µg/mL
same,MIC,"[20]; GC4564, read-out: MINIMAL INHIBITORY CONCENTRATION MIC, Water",8 µg/mL
